According to patent publication US20250188076A1, “SOLID STATE FORMS OF TOLEBRUTINIB AND OF TOLEBRUTINIB SALTS” (TEVA PHARMACEUTICAL INTERNATIONAL GMBH, priority 2022, published 2025):

Experiment: Solubility comparison in water and aqueous acetate buffer at pH 4.5

- solubility: < 200 µg/mL
Substance: Tolebrutinib [Tolebrutinib Form CSI]
